Measured values: US20240124444A1 (Celgene Corporation, priority 2020, published 2024)
Where two headings read alike, the source gives them in different places.

Tested on: C. parvum strain UGA1
Assay: C. parvum growth inhibition assay (Nluc luminescence in HCT-8 cells)
Type: cell-based, Cryptosporidium parvum
Conditions: Cryptosporidium parvum; for inhibition at 1 µM / inhibition at 10 µM: HCT-8; for inhibition at 1 µM: read-out: % inh @ 1 uM C. parvum; for inhibition at 10 µM: read-out: % inh @ 10 uM C. parvum; for EC50: HCT-8, 48 h, C. parvum growth inhibition in HCT-8 cells, 48 hours, 6 concentrations 10-0.04 μM
[1] = single point inhibition @ 10 uM
[2] = single point inhibition at 1 uM
[3] = single point inhibition at 10 uM

SMILES	inhibition at 1 µM (single point inhibition @ 1 uM) [%]	inhibition at 10 µM [1] [%]	inhibition at 1 µM [2] [%]	inhibition at 10 µM [3] [%]	EC50 [µM]
COc1nccc(-c2cc3cnc(NC(=O)c4cnn(CC5CCOC5)c4C)cc3[nH]2)n1 (stereo in doubt) [Example 179, (S)-N-(2-(2-methoxypyrimidin-4-yl)-1H-pyrrolo[3,2-c]pyridin-6-yl)-5-methyl-1-((tetrahydrofuran-3-yl)methyl)-1H-pyrazole-4-carboxamide]	0 to 33	67 to 100	–	–	–
CCOc1nccc(-c2cc3cnc(NC(=O)[C@H]4C[C@H](O)C4)cc3[nH]2)n1 [Example 253, (1r,3r)-N-(2-(2-ethoxypyrimidin-4-yl)-1H-pyrrolo[3,2-c]pyridin-6-yl)-3-hydroxycyclobutanecarboxamide]	–	–	0 to 33	0 to 33	–
Cn1c(-c2ccnc(C(F)(F)F)n2)cc2cnc(NC(=O)C3CC3)cc21 [Example 302, N-(1-methyl-2-(2-(trifluoromethyl)pyrimidin-4-yl)-1H-pyrrolo[3,2-c]pyridin-6-yl)cyclopropanecarboxamide]	–	–	0 to 33	0 to 33	–
COC(=O)Nc1cc2[nH]c(C(F)(F)F)cc2cn1 [Example 107, methyl 2-(trifluoromethyl)-1H-pyrrolo[3,2-c]pyridin-6-ylcarbamate]	–	–	–	–	> 1
CC(C)n1cc(C(=O)Nc2cc3[nH]c(-c4ccnc(N(C)CC(F)(F)F)n4)cc3cn2)cn1 [Example 232, 1-isopropyl-N-(2-(2-(methyl(2,2,2-trifluoroethyl)amino)pyrimidin-4-yl)-1H-pyrrolo[3,2-c]pyridin-6-yl)-1H-pyrazole-4-carboxamide]	–	–	0 to 33	33 to 66	–
Cc1cc(-c2cc3cnc(N(C)C(=O)C4CC4)cc3[nH]2)ccn1 [Example 86, N-methyl-N-(2-(2-methylpyridin-4-yl)-1H-pyrrolo[3,2-c]pyridin-6-yl)cyclopropanecarboxamide]	33 to 66	0 to 33	–	–	> 1
Cn1cc(C(=O)Nc2cc3[nH]c(-c4cc(C(F)(F)F)ccn4)cc3cn2)cn1 [Example 299, 1-methyl-N-(2-(4-(trifluoromethyl)pyridin-2-yl)-1H-pyrrolo[3,2-c]pyridin-6-yl)-1H-pyrazole-4-carboxamide]	–	–	0 to 33	0 to 33	–
COCCOc1ccc(C(=O)Nc2cc3[nH]c(-c4ccnc(OC)n4)cc3cn2)cc1OC [Example 252, 3-methoxy-4-(2-methoxyethoxy)-N-(2-(2-methoxypyrimidin-4-yl)-1H-pyrrolo[3,2-c]pyridin-6-yl)benzamide]	–	–	0 to 33	0 to 33	–
FC(F)(F)c1cc2cnc(NC3CCOCC3)cc2[nH]1 [Example 71, N-(tetrahydro-2H-pyran-4-yl)-2-(trifluoromethyl)-1H-pyrrolo[3,2-c]pyridin-6-amine]	–	–	–	–	> 1
c1cc(-c2cc3cnc(NC4CCOCC4)cc3[nH]2)ccn1 [Example 353, 2-(pyridin-4-yl)-N-(tetrahydro-2H-pyran-4-yl)-1H-pyrrolo[3,2-c]pyridin-6-amine]	–	–	–	–	< 0.5
Cn1ccc(C(=O)Nc2cc3[nH]c(-c4ccncc4)cc3cn2)n1 [Example 238, 1-methyl-N-(2-(pyridin-4-yl)-1H-pyrrolo[3,2-c]pyridin-6-yl)-1H-pyrazole-3-carboxamide]	–	–	0 to 33	0 to 33	–
Cn1c(-c2ccccn2)cc2cnc(NC(=O)C3CC3)cc21 [Example 129, N-(1-methyl-2-(pyridin-2-yl)-1H-pyrrolo[3,2-c]pyridin-6-yl)cyclopropanecarboxamide]	–	–	–	–	> 1
CO[C@H]1CC[C@@H](Nc2cc3[nH]c(-c4cccnc4)cc3cn2)CC1 [Example 228, N-((1s,4s)-4-methoxycyclohexyl)-2-(pyridin-3-yl)-1H-pyrrolo[3,2-c]pyridin-6-amine]	–	–	33 to 66	33 to 66	–
Cn1cnc(-c2cc3cnc(NC4CCOCC4)cc3[nH]2)c1 [Example 123, 2-(1-methyl-1H-imidazol-4-yl)-N-(tetrahydro-2H-pyran-4-yl)-1H-pyrrolo[3,2-c]pyridin-6-amine]	–	–	–	–	> 1
Cc1cc(-c2[nH]c3cc(NC4CCCCC4)ncc3c2C)ccn1 [Example 369, N-cyclohexyl-3-methyl-2-(2-methylpyridin-4-yl)-1H-pyrrolo[3,2-c]pyridin-6-amine]	–	–	–	–	> 1
CCOc1nccc(-c2cc3cnc(NC(=O)c4cn(CCO)nc4C)cc3[nH]2)n1 [Example 233, N-(2-(2-ethoxypyrimidin-4-yl)-1H-pyrrolo[3,2-c]pyridin-6-yl)-1-(2-hydroxyethyl)-3-methyl-1H-pyrazole-4-carboxamide]	–	–	0 to 33	33 to 66	–
CCn1cc(C(=O)Nc2cc3[nH]c(-c4ccnc(OCC(F)F)n4)cc3cn2)c(C)n1 [Example 318]	–	–	0 to 33	0 to 33	–
Cc1cc(-c2cc3cnc(NC(=O)CN(C)C)cc3n2C)ncn1 [Example 127, 2-(dimethylamino)-N-(1-methyl-2-(6-methylpyrimidin-4-yl)-1H-pyrrolo[3,2-c]pyridin-6-yl)acetamide]	–	–	–	–	> 1

SMILES	inhibition at 1 µM (single point inhibition @ 1 uM) [%]	inhibition at 10 µM [1] [%]	inhibition at 1 µM [2] [%]	inhibition at 10 µM [3] [%]	EC50 [µM]
CNc1cc2c(cn1)cc(-c1cc(C)ncn1)n2C [Example 126, N,1-dimethyl-2-(6-methylpyrimidin-4-yl)-1H-pyrrolo[3,2-c]pyridin-6-amine]	–	–	–	–	> 1
N#Cc1cc(-c2cc3cnc(Nc4cccc(-c5nnc[nH]5)c4)cc3[nH]2)ccn1 [Example 79, 4-(6-(3-(4H-1,2,4-triazol-3-yl)phenylamino)-1H-pyrrolo[3,2-c]pyridin-2-yl)picolinonitrile]	33 to 66	67 to 100	–	–	> 1
Cc1cc(C(=O)Nc2cc3[nH]c(-c4ccncc4)cc3cn2)nn1C [Example 282, 1,5-dimethyl-N-(2-(pyridin-4-yl)-1H-pyrrolo[3,2-c]pyridin-6-yl)-1H-pyrazole-3-carboxamide]	–	–	0 to 33	0 to 33	–
Cc1nccc(-c2cc3cnc(NC(=O)c4cnn(C)c4)cc3[nH]2)c1F [Example 283, N-(2-(3-fluoro-2-methylpyridin-4-yl)-1H-pyrrolo[3,2-c]pyridin-6-yl)-1-methyl-1H-pyrazole-4-carboxamide]	–	–	0 to 33	0 to 33	–
O=C(Nc1cc2[nH]c(-c3ccc(F)nc3)cc2cn1)C1CC1 [Example 248, N-(2-(6-fluoropyridin-3-yl)-1H-pyrrolo[3,2-c]pyridin-6-yl)cyclopropanecarboxamide]	–	–	0 to 33	0 to 33	–
Cn1cnc(-c2cc3cnc(NC(=O)C4CC4)cc3n2C)c1 [Example 342, N-(1-methyl-2-(1-methyl-1H-imidazol-4-yl)-1H-pyrrolo[3,2-c]pyridin-6-yl)cyclopropanecarboxamide]	–	–	–	–	> 1
Cn1cc(C(=O)Nc2cc3[nH]c(-c4ccnc(C(F)(F)F)c4)cc3cn2)cn1 [Example 284, 1-methyl-N-(2-(2-(trifluoromethyl)pyridin-4-yl)-1H-pyrrolo[3,2-c]pyridin-6-yl)-1H-pyrazole-4-carboxamide]	–	–	0 to 33	0 to 33	–
COc1nccc(-c2cc3cnc(NC(=O)C4CC4)cc3n2CCO)n1 [Example 343, N-(1-(2-hydroxyethyl)-2-(2-methoxypyrimidin-4-yl)-1H-pyrrolo[3,2-c]pyridin-6-yl)cyclopropanecarboxamide]	–	–	–	–	> 1
COc1nccc(-c2cc3cnc(NC(=O)[C@H]4C[C@H](O)C4)cc3[nH]2)n1 [Example 63, (1r,3r)-3-hydroxy-N-(2-(2-methoxypyrimidin-4-yl)-1H-pyrrolo[3,2-c]pyridin-6-yl)cyclobutanecarboxamide]	0 to 33	67 to 100	–	–	> 1
COc1nccc(-c2cc3cnc(NC(=O)[C@H]4C[C@@H](O)C4)cc3[nH]2)n1 [Example 167, (1s,3s)-3-hydroxy-N-(2-(2-methoxypyrimidin-4-yl)-1H-pyrrolo[3,2-c]pyridin-6-yl)cyclobutanecarboxamide]	33 to 66	67 to 100	–	–	–
Cc1cc(-c2cc3cnc(NC(=O)NC4CC4)cc3[nH]2)ccn1 [Example 209, 1-cyclopropyl-3-(2-(2-methylpyridin-4-yl)-1H-pyrrolo[3,2-c]pyridin-6-yl)urea]	–	–	0 to 33	67 to 100	–
CC(C)n1cc(C(=O)Nc2cc3c(cn2)cc(-c2ccnc(NC4CC4)n2)n3C)cn1 [Example 132, N-(2-(2-(cyclopropylamino)pyrimidin-4-yl)-1-methyl-1H-pyrrolo[3,2-c]pyridin-6-yl)-1-isopropyl-1H-pyrazole-4-carboxamide]	0 to 33	67 to 100	–	–	–
COc1cc(-c2cc3cnc(NC(=O)c4cnn(C)c4)cc3[nH]2)ccn1 [Example 286, N-(2-(2-methoxypyridin-4-yl)-1H-pyrrolo[3,2-c]pyridin-6-yl)-1-methyl-1H-pyrazole-4-carboxamide]	–	–	0 to 33	0 to 33	–
O=C(Nc1cc2[nH]c(-c3cnc[nH]3)cc2cn1)C1CC1 [Example 330, N-(2-(1H-imidazol-5-yl)-1H-pyrrolo[3,2-c]pyridin-6-yl)cyclopropanecarboxamide]	–	–	0 to 33	0 to 33	–
COc1nccc(-c2cc3cnc(NC(=O)c4cnn(C)c4)cc3n2C)n1 [Example 256, N-(2-(2-methoxypyrimidin-4-yl)-1-methyl-1H-pyrrolo[3,2-c]pyridin-6-yl)-1-methyl-1H-pyrazole-4-carboxamide]	–	–	0 to 33	0 to 33	–
CCOc1nccc(-c2cc3cnc(NC(=O)c4cnn(C)c4)cc3[nH]2)n1 [Example 293, N-(2-(2-ethoxypyrimidin-4-yl)-1H-pyrrolo[3,2-c]pyridin-6-yl)-1-methyl-1H-pyrazole-4-carboxamide]	–	–	0 to 33	0 to 33	–
O=C(CC1CCCC1)Nc1cc2[nH]c(-c3ccncc3)cc2cn1 [Example 207, 2-cyclopentyl-N-(2-(pyridin-4-yl)-1H-pyrrolo[3,2-c]pyridin-6-yl)acetamide]	–	–	0 to 33	67 to 100	–
